Measured values as given in PMC5295395, “Inhibition of PlexA1-mediated brain tumor growth and tumor-associated angiogenesis using a transmembrane domain targeting peptide” (Oncotarget, 2016).

Legend:
[1] = test system: chick chorio-allantoic membrane blood vessels; assay: chick embryonic chorio-allantoic membrane assay; type: in vivo; details: chick CAM, local deposition, 10^−7 M, 24 h incubation
Experimental: The CAM assay was performed using Leghorn eggs. After 4 days incubation at 37°C, the shells were opened and the embryos were transferred to a Petri dish. The CAMs were grown for additional 4 days before deposition of silicone reservoirs in a region containing one large vessel. Reservoirs were filled with 20 μl VEGF165 solution (20 μg/ml) or a combination of VEGF165 (20 μg/ml) + MTP-PlexA1 (10–7 M). After 24 h incubation, micro- photographs were taken for quantification of vessel growth. Camera lucida drawing was systematically performed to allow better counting of blood vessels and sprouting; the entire analysis being performed in blind conditions.

HUVEC cells = assay: pseudo-tube formation assay, HUVEC on matrigel; type: cell-based, human; details: 10^−7 M, 5 h, vs vehicle; p = 0.0087
Text: We observed PlexA1 positive blood vessels in the tissue array of GBM samples (Figure 5A). […] To address this possibility we first used a transgenic zebra-fish model tg(kdrl:eGFP) highlighting the endothelial cells. This allowed us to assess the angiogenic activities in vivo by analyzing formation of intersegmental vessels (ISVs) after morpholino-based knockdown of the target.
Figure 5 MTP-PlexA1 inhibits developmental and tumor-specific PlexA1 pro-angiogenic role (A) Microphotographs illustrating the expression of PlexA1 in vascular-like structures in human glioma tissues. (Scale bar: 40 μm). (B) Morpholino-based PlexA1 knockdown in Zebrafish tg(kdrl:eGFP) line. Representative images of control, Plexin-A1 mismatch and Pexin-A1 knockdown embryos (plxna1MO) are shown 28 hours post fertilization (28hpf). […] (E) Live-monitoring of VEGF-induced HUVEC cell migration assay using the XCelligence system (transwell assay). (F) Microphotographs illustrating the expression of PlexA1 in blood vessels of the chick chorioallontoic membrane (upper left picture). Microphotographs (middle and lower left pictures) and camera lucida drawing (middle and lower right pictures) showing representative fields of observation after 24 h incubation with VEGF (100 ng/ml, +vehicle) or VEGF + MTP-PlexA1 (10^−7 M). The number of VEGF-induced new blood vessels is shown in the graph. […]

p-Akt/Akt = assay: western blot of Akt phosphorylation in U373MG cells; type: cell-based, human; details: Sema3A 100 ng/ml + MTP-PlexA1 10^−7 M
Experimental: (C) Rac-1 activation assay in resting condition and after Sema3A-induced Rac-1 activation in U373 MG cells. (D) Western blot analysis of phosphorylated Akt, total Akt and tubulin in U373MG cells treated with the vehicle (LDS 72 μM), Sema3A (100 ng/ml) or Sema3A + MTP-PlexA1 (10^−7 M). The lower panel is showing the quantification of the p-Akt/Akt ratio in the different conditions. (E) MTP-PlexA1 decreases VEGFR-2 phosphorylation induced by VEGF (100 ng/ml) in HUVEC cells. […]
in 20 mM sodium acetate (pH 4.5) at a flow rate of 5 μl/ min 10–7 M of MTP-PlexA1 or Vehicle (LDS, 72 µM) during until desired surface densities, measured in response 1 h. Stimulation was done with 100ng/ml Semaphorin 3A units, were reached. […] First antibodies (Rabbit anti-phospho-the elution buffer containing detergent removed non- akt, Rabbit anti-akt, Cell Signaling #4060 and #9272 biotinylated peptides rendering the chip ready for analysis respectively) and mouse anti-tubulin α (Cell Signaling with monomeric biot-MTP-PlexA1. Blank surfaces were #2144) were incubated overnight at 4°C (+ anti-NRP1, used for background corrections. Injections of 30 µl anti-PlexA4 Abcam). […] Images of the immuno-blots cells per well in a 6-well plate and serum starved overnight. were acquired and analyzed thanks to the GENE GNOME Before protein extraction, the cells were treated either with apparatus (Syngene Bio Imaging, UK).

TLPAIVGIGGGGGLLLLVIVAVLIAYKRK [MTP-PlexA1, synthetic transmembrane peptide mimicking the TMD of PlexA1]
VEGFA-induced vascular growth and complexity [1]: significantly inhibited
change of tube-like structures (HUVEC on matrigel) (HUVEC cells): −68%
effect on Sema3A-induced inhibition of Akt phosphorylation (p-Akt/Akt): blocked
